# Laboratory results from patent US11077139B2, “Combination of an arsenic compound and at least one retinoid for treating acute myeloid leukemia” (INSERM (Institut National de la Sante et de la Recherche …, priority 2013, dated 2021).
# How the values were obtained:
# mutant NPM-1 = experiment: Western blot for NPM-1 and mutated NPM-1; assay type: cell-based
# Description: Cells were solubilized at 4° C. in lysis buffer. […] Blots were incubated with specific antibodies, washed and proteins were visualized using the ECL chemiluminescence system (Santa Cruz, Germany). The following antibodies were used; monoclonal anti-wt NPM-1 (Abnova, Abcam), polyclonal anti-mutated NPM-1 (Abnova), anti-actin (Santa-cruz, Germany) and anti-GAPDH (Abnova).
# [1] = tested on: OCI-AML3 cells (mutated NPM-1); assay type: cell-based; conditions: addition of the proteasome inhibitor
# Description: Cells were seeded at a density of 2×10^5/ml. Primary AML cells (from either peripheral blood or BM) were extracted following ficoll separation and cultured in MEM-α supplemented with 20% FBS and antibiotics. […] Cell growth was assessed using the CellTiter 96® cell proliferation assay kit (Promega Corp., Madison, Wis., USA) or by trypan blue dye assay.
# Proliferation experiments on cell lines were repeated at least three times. Data are reported as the mean+/−standard error. […] CI was used to assess synergistic effects (CI<1), additive effects (CI=1) or antagonistic effects (CI>1). Two statistical tests were performed to validate significance: the t-test and the one-way analysis of variance (ANOVA) test. *, ** and *** indicate p values≤0.05; 0.01 and 0.001, respectively. p-values less than 0.05 were considered significant.
Molecule,effect of pre-treatment on arsenic-induced degradation of mutant NPM-1 (mutant NPM-1; data not shown),effect on RA/arsenic-induced NPM-1 degradation (mutant NPM-1; addition of the proteasome inhibitor),effect on RA/arsenic-induced growth arrest [1]
interferon alpha,significantly accelerated,,
CC(C)C[C@H](NC(=O)[C@H](Cc1ccccc1)NC(=O)c1cnccn1)B(O)O [PS-341],,reversed,reversed
